pIC50: −log10 of the molar value.
Columns and labels:
estrogen receptor (ER) = estrogen receptor (ER) (Homo sapiens (Human), UniProt P03372); assay: Inhibition of the binding of estrogen (E) to estrogen receptor (ER), MCF-7/ERE-luciferase reporter cells; format: cell-based; conditions: MCF-7/ERE-luciferase cells, 0.1 nM estradiol, 24 hours; read-out: IC50 value of inhibition effect on the binding of E to ER
Procedure: The inhibition effect of the compounds on the binding of E to ER in vitro was tested by the following method.
The object of this experiment was to determine the inhibition effect of the compounds on the binding of E to ER, and the in vitro activity of the compounds was evaluated according to the IC50 value.
MCF-7/ERE-luciferase cells were inoculated into the MEM medium (hyclone, SH30024.01B) containing 10% charcoal stripped FBS (Moregate, FBSF), 1% sodium pyruvate (Sigma, Cat. No. S8636), 1% nonessential amino acids (Sigma, Cat. No. M7145) and 500 μg/ml G418 in a 96-well plate with a density of 30,000 cells/well, and the cells were incubated under the conditions of 37° C. and 5% CO2. […] After incubation for 24 hours, the medium was removed, then 0.1 nM estradiol (Sigma, Cat. No. E2758) and 10 μl of the drug diluted with the medium were added to each well, and the control group was added with DMSO. The plate was gently shaken and incubated in a incubator at 37° C., 5% CO2. After 24 hours, the cell culture medium was discarded.
The inhibition effect of the compounds of the present invention on the binding of E to ER was tested by the experiment described above.

MCF7 cells = assay: Inhibition of the proliferation of MCF7 cells (Cell Titer-Glo); format: cell-based; conditions: Homo sapiens, MCF-7 cells, 72 hours, read-out: IC50 value of inhibition effect on the proliferation of MCF7 cells
In short: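 Viability by Cell Titer-Glo luminescence; IC50 from signal versus log concentration.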

ERα = ERα (Homo sapiens (Human), UniProt P03372); assay: Degradation effect on ERα in MCF-7 cells (ERα Duoset ELISA); format: cell-based; conditions: MCF-7 cells; read-out: IC50 value of the degradation effect on ERα
Sequence of ERα (P03372 whole entry): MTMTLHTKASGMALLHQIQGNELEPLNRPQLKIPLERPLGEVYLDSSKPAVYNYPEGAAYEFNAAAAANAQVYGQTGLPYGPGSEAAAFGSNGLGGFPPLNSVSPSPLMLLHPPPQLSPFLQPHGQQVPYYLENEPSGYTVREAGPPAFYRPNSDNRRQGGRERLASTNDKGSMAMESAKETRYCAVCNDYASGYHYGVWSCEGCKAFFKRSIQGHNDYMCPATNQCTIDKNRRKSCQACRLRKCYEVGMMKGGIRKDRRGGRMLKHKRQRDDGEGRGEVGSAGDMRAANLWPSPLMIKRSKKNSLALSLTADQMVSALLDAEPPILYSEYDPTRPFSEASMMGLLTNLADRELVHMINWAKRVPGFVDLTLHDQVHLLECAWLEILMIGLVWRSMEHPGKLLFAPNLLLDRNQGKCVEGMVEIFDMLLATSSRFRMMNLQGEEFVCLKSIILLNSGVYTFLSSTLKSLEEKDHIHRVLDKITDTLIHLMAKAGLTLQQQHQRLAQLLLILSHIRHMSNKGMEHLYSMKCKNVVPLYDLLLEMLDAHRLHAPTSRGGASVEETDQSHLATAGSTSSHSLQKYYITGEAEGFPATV
Procedure: In order to determine the degradation effect on ER induced by the compounds of the present invention, the following method was used to determine the degradation effect of the compounds of the present invention on ER.
MCF-7 cell line (TChu 74, Cell Bank of Chinese Academy of Sciences typical culture preservation Committee)
ERα Duoset Kit (#DYC5715E, R&D System)
MCF-7 cells were incubated in DMEM/F-12 medium containing 10% FBS.
On the first day of the experiment, MCF-7 cells were resuspended in DMEM/F-12 medium containing 10% FBS treated by activated carbon, then inoculated into a 48-well plate with a density of 50,000 cells/well and incubated for 22-24 hours.
On the second day of the experiment, the test compound was diluted with medium and added to a 48-well plate. The ERα-capture antibody was diluted to 1 μg/ml with PBS, and added to a 96-well plate at 100 μl/well. The plate was sealed and coated overnight at room temperature.
On the third day of the experiment, the coated 96-well plate was washed twice with PBS, added with a sealing solution (1% BSA in PBS) at 110 μl/well and sealed for 1 hour at room temperature. The 48-well plate was washed once with PBS, and the residual liquid was removed. Then, 60 μl of lysis (6 M urea, 1 mM EDTA, 0.5% Triton X-100, 1 mM PMSF, Protease Inhibitor cocktail) was added to each well. After lysis on ice for 15 minutes, the diluent (1 mM EDTA, 0.5% TritonX-100 dissolved in PBS) was added. The cell-diluted lysate was transferred to a 96-well plate at 100 μl/well, then the plate was incubated at room temperature for 2 hours. The diluted primary antibody was added after the plate was washed 4 times with a washing liquid (PBST). After incubation for 1 hour, the 96-well plate was washed 4 times, and the second antibody was added, then the plate was incubated for 30 minutes. After the plate was washed with a washing liquid, TMB chromogenic solution was added and incubated for 15 minutes. The reaction was stopped by the addition of 1 M H2SO4, then the light absorption at 450 nm was read.

[1] = Pharmacokinetics assay in BALB/C nude mice after intragastrical administration; format: in vivo; conditions: female, mouse, plasma, po, 3 mg/kg; for AUC: read-out: Area Under Curve AUC; for CL/F: read-out: Clearance CL/F (converted); for half-life: read-out: Half-Life t½ (converted); for MRT: read-out: Mean Residence Time MRT; for Cmax: read-out: Plasma Conc. Cmax
Procedure: BALB/C nude mice were used as test animals. The drug concentration in plasma at different time points was determined by LC/MS/MS after intragastrical administration of the compounds of Examples 10, 14, 20, 21, 57, 68, 71, 73, 74, 76 and 89 to BALB/C nude mice. The pharmacokinetic behavior of the compounds of the present invention was studied and evaluated in BALB/C nude mice.
Ninety-nine (99) female BALB/C nude mice were equally divided into 11 groups, which were purchased from SINO-BRITSH SIPPR/BK LAB. ANIMAL LTD., CO, with Certificate No.: SCXK (Shanghai) 2008-0016.
The appropriate amount of each test compound was weighed, and successively added with 9% PEG400+0.5% tween 80+0.5% PVP+90% aqueous solution of 0.5% CMC.
After an overnight fast, 99 female BALB/C nude mice were equally divided into 11 groups, and administered the test compounds intragastrically at an administration volume of 0.2 mL/10 g.
Blood (0.1 mL) was sampled (3 mice at each time point) at 0.5, 1.0, 2.0, 4.0, 6.0, 8.0, 11.0 and 24.0 hours after administration. The samples were stored in heparinized test tubes, and centrifuged for 10 minutes at 3,500 rpm to separate the blood plasma. The plasma samples were stored at −20° C. The plasma concentration of the test compounds in BALB/C nude mice after intragastrical administration was determined by LC/MS/MS.
Pharmacokinetic parameters of the compounds of Examples 10, 14, 20, 21, 57, 68, 71, 73, 74, 76 and 89 of the present invention are shown below.

Sequence of estrogen receptor (ER) (P03372 whole entry): as above

`CC1Cc2cc(-c3ccc(N4CCOCC4)cc3)ccc2C(c2c(F)cc(/C=C/C(=O)O)cc2F)N1CC(C)(C)F` [Example 60, (E)-3-(3,5-difluoro-4-((1S,3R/1R,3S)-2-(2-fluoro-2-methylpropyl)-3-methyl-6-(4-morpholinophenyl)-1,2,3,4-tetrahydroisoquinolin-1-yl)phenyl)acrylic acid] showed a pIC50 (estrogen receptor (ER)) of 8.15, a pIC50 (MCF7 cells) of 8.68 and a DC50 (ERα) of 7.35 nM.

`CC1Cc2cc3[nH]ncc3cc2C(c2c(F)cc(/C=C/C(=O)O)cc2F)N1CC(C)(C)F` [Example 91, (E)-3-(3,5-difluoro-4-((5S,7R/5R,7S)-6-(2-fluoro-2-methylpropyl)-7-methyl-5,6,7,8-tetrahydro-1H-pyrazolo[3,4-g]isoquinolin-5-yl)phenyl)acrylic acid] gave a pIC50 (estrogen receptor (ER)) of 8.73, a pIC50 (MCF7 cells) of 9.08 and a DC50 (ERα) of 2.33 nM.

In the case of `CC1Cc2c(oc3cc(F)ccc23)C(c2c(F)cc(/C=C/C(=O)O)cc2F)N1CC(C)(C)F` [Example 86, (E)-3-(3,5-difluoro-4-((1R,3R/1S,3S)-7-fluoro-2-(2-fluoro-2-methylpropyl)-3-methyl-1,2,3,4-tetrahydrobenzofuro[2,3-c]pyridin-1-yl)phenyl)acrylic acid], the pIC50 (estrogen receptor (ER)) was 8.35, the pIC50 (MCF7 cells) was 9.19 and the DC50 (ERα) was 7.13 nM.

Work on `CC1Cc2cc(-c3cnn(C4CC4)c3)ccc2C(c2c(F)cc(/C=C/C(=O)O)cc2F)N1CC(C)(C)F` [Example 58, (E)-3-(4-((1S,3R/1R,3S)-6-(1-cyclopropyl-1H-pyrazol-4-yl)-2-(2-fluoro-2-methylpropyl)-3-methyl-1,2,3,4-tetrahydroisoquinolin-1-yl)-3,5-difluorophenyl)acrylic acid] yielded a pIC50 (estrogen receptor (ER)) of 9.08, a pIC50 (MCF7 cells) of 8.87 and a DC50 (ERα) of 1.79 nM.

Work on `CC1Cc2c(oc3cccc(F)c23)C(c2c(F)cc(/C=C/C(=O)O)cc2F)N1CC(C)(C)F` [Example 73, (E)-3-(3,5-difluoro-4-((1R,3R/1S,3S)-5-fluoro-2-(2-fluoro-2-methylpropyl)-3-methyl-1,2,3,4-tetrahydrobenzofuro[2,3-c]pyridin-1-yl)phenyl)acrylic acid] yielded a pIC50 (MCF7 cells) of 9.70, a DC50 (ERα) of 0.76 nM and an AUC [1] of 3950 ng·h/mL. The CL/F [1] was 210 mL/min/kg, the half-life [1] was 1.47 h and the MRT [1] was 2.45 h. The Cmax [1] was 1490 ng/mL.

`CC1Cc2c(ccc(-c3cnn(C)c3)c2F)C(c2c(F)cc(/C=C/C(=O)O)cc2F)N1CC(C)(C)F` [Example 45, (E)-3-(3,5-difluoro-4-((1S,3R/1R,3S)-5-fluoro-2-(2-fluoro-2-methylpropyl)-3-methyl-6-(1-methyl-1H-pyrazol-4-yl)-1,2,3,4-tetrahydroisoquinolin-1-yl)phenyl)acrylic acid] showed a pIC50 (estrogen receptor (ER)) of 9.06, a pIC50 (MCF7 cells) of 10.10 and a DC50 (ERα) of 2.12 nM.

`CC1Cc2cc(-c3ccc4[nH]ncc4c3)ccc2C(c2c(F)cc(/C=C/C(=O)O)cc2F)N1CC(C)(C)F` [Example 67, (E)-3-(3,5-difluoro-4-((1S,3R/1R,3S)-2-(2-fluoro-2-methylpropyl)-6-(1H-indazol-5-yl)-3-methyl-1,2,3,4-tetrahydroisoquinolin-1-yl)phenyl)acrylic acid] showed a pIC50 (estrogen receptor (ER)) of 8.26, a pIC50 (MCF7 cells) of 10.15 and a DC50 (ERα) of 6.69 nM.

`C[C@@H]1Cc2c(ccc3[nH]ncc23)[C@@H](c2c(F)cc(/C=C/C(=O)O)cc2F)N1CC(C)(C)F` [Example 94, (E)-3-(3,5-difluoro-4-((6S,8R)-7-(2-fluoro-2-methylpropyl)-8-methyl-6,7,8,9-tetrahydro-3H-pyrazolo[4,3-f]isoquinolin-6-yl)phenyl)acrylic acid] showed a pIC50 (estrogen receptor (ER)) of 10.40, a pIC50 (MCF7 cells) of 10.52 and a DC50 (ERα) of 0.02 nM.

`CC1Cc2cc(N3CCOCC3)ccc2C(c2c(F)cc(/C=C/C(=O)O)cc2F)N1CC(C)(C)F` [Example 41, (E)-3-(3,5-difluoro-4-((1S,3R/1R,3S)-2-(2-fluoro-2-methylpropyl)-3-methyl-6-morpholino-1,2,3,4-tetrahydroisoquinolin-1-yl)phenyl)acrylic acid] gave a pIC50 (estrogen receptor (ER)) of 8.71, a pIC50 (MCF7 cells) of 8.72 and a DC50 (ERα) of 0.36 nM.

`C[C@@H]1Cc2cc(-c3ccc4ncccc4c3)ccc2[C@@H](c2c(F)cc(/C=C/C(=O)O)cc2F)N1CC(C)(C)F` [Example 64, (E)-3-(3,5-difluoro-4-((1S,3R)-2-(2-fluoro-2-methylpropyl)-3-methyl-6-(quinolin-6-yl)-1,2,3,4-tetrahydroisoquinolin-1-yl)phenyl)acrylic acid] showed a pIC50 (estrogen receptor (ER)) of 8.97, a pIC50 (MCF7 cells) of 9.66 and a DC50 (ERα) of 4.72 nM.

In the case of `CC1Cc2cc3ocnc3cc2C(c2c(F)cc(/C=C/C(=O)O)cc2F)N1CC(C)(C)F` [Example 81, (E)-3-(3,5-difluoro-4-((5S,7R/5R,7S)-6-(2-fluoro-2-methylpropyl)-7-methyl-5,6,7,8-tetrahydrooxazolo[5,4-g]isoquinolin-5-yl)phenyl)acrylic acid], the pIC50 (estrogen receptor (ER)) was 8.39, the pIC50 (MCF7 cells) was 8.47 and the DC50 (ERα) was 1.62 nM.

In the case of `CNC(=O)COc1ccc2c(c1)CC(C)N(CC(C)(C)F)C2c1c(F)cc(/C=C/C(=O)O)cc1F` [Example 32, (E)-3-(3,5-difluoro-4-((1S,3R/1R,3S)-2-(2-fluoro-2-methylpropyl)-3-methyl-6-(2-(methylamino)-2-oxoethoxy)-1,2,3,4-tetrahydroisoquinolin-1-yl)phenyl)acrylic acid], the pIC50 (estrogen receptor (ER)) was 8.84, the pIC50 (MCF7 cells) was 11.00 and the DC50 (ERα) was 0.41 nM.

`CCn1cc(-c2ccc3oc4c(c3c2)CC(C)N(CC(C)(C)F)C4c2c(F)cc(/C=C/C(=O)O)cc2F)cn1` [Example 76, (E)-3-(4-((1R,3R/1S,3S)-6-(1-ethyl-1H-pyrazol-4-yl)-2-(2-fluoro-2-methylpropyl)-3-methyl-1,2,3,4-tetrahydrobenzofuro[2,3-c]pyridin-1-yl)-3,5-difluorophenyl)acrylic acid] showed a pIC50 (MCF7 cells) of 9.23, a DC50 (ERα) of 2.43 nM and an AUC [1] of 26900 ng·h/mL. It also gave a CL/F [1] of 31 mL/min/kg, a half-life [1] of 4.53 h and an MRT [1] of 5.7 h. The Cmax [1] was 5460 ng/mL.

Molecule `CC1Cc2c(oc3ccccc23)C(c2c(F)cc(/C=C/C(=O)O)cc2F)N1CC(C)(C)F` [Example 4, (E)-3-(3,5-difluoro-4-((1R,3R/1S,3S)-2-(2-fluoro-2-methylpropyl)-3-methyl-1,2,3,4-tetrahydrobenzofuro[2,3-c]pyridin-1-yl)phenyl)acrylic acid] has a pIC50 (MCF7 cells) of 9.72 and a DC50 (ERα) of 0.56 nM.
